Patent US6984645B2, “Dual inhibitors of adipocyte fatty acid binding protein and keratinocyte fatty acid binding protein” (Bristol-Myers Squibb Company, priority 2001, dated 2006)
Structures can show the parent of a compound that is named as a salt.

Row | melting point | SMILES
1 | 151 to 153 °C | O=C(O)c1cc(Br)cc(OCc2ccccc2)c1OCc1ccccc1 [Example 356, 5-Bromo-2,3-bis(phenylmethoxy)benzoic acid]
2 | 156 to 158 °C | O=C(O)c1c(Br)ccc(OCc2ccccc2Cl)c1OCc1ccccc1Cl [Example 373, 6-Bromo-2,3-bis[(2-chlorophenyl)methoxy]benzoic acid]
3 | 187 to 189 °C | O=C(O)/C=C/c1cccc(OCc2ccccc2Cl)c1OCc1ccccc1Cl [Example 4, 2-(E)-3-[2,3-Bis[(2-chlorophenyl)methoxy]phenyl]-2-propenoic acid]
4 | 117 to 118 °C | Cc1cc(C)cc(COc2cccc(C(=O)O)c2OCc2cc(C)cc(C)c2)c1 [Example 352]
5 | 168 to 169 °C | O=C(O)c1cccc(OCc2ccc(Cl)cc2Cl)c1OCc1ccc(Cl)cc1Cl [Example 346, 2,3-Bis[(2,4-dichlorophenyl)methoxy]benzoic acid]
6 | 105 to 107 °C | O=C(O)Cc1cccc(OCc2ccccc2Cl)c1OCc1ccccc1Cl [Example 5, 2,3-Bis[(2-chlorophenyl)methoxy]benzeneacetic acid]
7 | 97 to 99 °C | CO/N=C(/C(=O)O)c1cccc(OCc2ccccc2Cl)c1OCc1ccccc1Cl (single isomer, unassigned) [Example 341, (E or Z)-2,3-Bis[(2-chlorophenyl)methoxy]-α-(methoxyimino)benzeneacetic acid]
8 | 172 to 174 °C | O=C(O)c1cccc(COc2ccccc2Cl)c1OCc1ccccc1Cl [Example 10, 3-[(2-Chlorophenoxy)methyl]-2-[(2-chlorophenyl)methoxy]benzoic acid]
9 | 116 to 118 °C | O=C(O)C(=O)c1cccc(OCc2ccccc2Cl)c1OCc1ccccc1Cl [Example 26, 2,3-Bis[(2-chlorophenyl)methoxy]-α-oxobenzeneacetic acid]
10 | 107 to 109 °C | O=C(O)c1cccc(OCc2ccccc2Cl)c1OCc1ccc(OCc2ccccc2)cc1 [Example 360, 3-[(2-Chlorophenyl)methoxy]-2-[[4-(phenylmethoxy)phenyl]methoxy]benzoic acid]
11 | 219 to 220 °C | O=C(O)c1cccc(OCc2cc(Cl)cc(Cl)c2)c1OCc1cc(Cl)cc(Cl)c1 [Example 345, 2,3-Bis[(3,5-dichlorophenyl)methoxy]benzoic acid]
12 | 157 to 159 °C | O=C(O)c1cccc(OCc2ccccc2Cl)c1OCc1ccncc1 [Example 364]
13 | 168 to 170 °C | O=C(O)c1cccc(OCc2ccccc2Cl)c1OCc1ccccn1 [Example 363]
14 | 110 to 112 °C | COc1ccccc1COc1c(OCc2ccccc2Cl)cccc1C(=O)O [Example 362, 3-[(2-Chlorophenyl)methoxy]-2-[(2-methoxyphenyl)methoxy]benzoic acid]
15 | 92 to 94 °C | O=C(O)C(F)c1cccc(OCc2ccccc2Cl)c1OCc1ccccc1Cl (stereo not drawn) [Example 24, 2,3-Bis[(2-chlorophenyl)methoxy]-α-fluorobenzeneacetic acid]
16 | 189 to 191 °C | O=C(O)c1cccc(OCc2ccccc2Cl)c1OCc1cccc[n+]1[O-] [Example 367, 3-[(2-Chlorophenyl)methoxy]-2-[(1-oxido-2-pyridinyl)methoxy]benzoic acid]
17 | 172 to 174 °C | O=C(O)c1cccc(COc2ccccc2Cl)c1COc1ccccc1Cl [Example 9, 2,3-Bis[(2-chlorophenoxy)methyl]benzoic acid]
18 | 156 to 158 °C | O=C(O)c1cccc(OCc2cc(C(F)(F)F)cc(C(F)(F)F)c2)c1OCc1cc(C(F)(F)F)cc(C(F)(F)F)c1 [Example 350, 2,3-Bis[[3,5-bis(trifluoromethyl)phenyl]methoxy]benzoic acid]
19 | 167 to 168 °C | O=C(Nc1c(OCc2ccccc2)cccc1C(=O)O)c1ccccc1 [Example 375, 2-(Benzoylamino)-3-(phenylmethoxy)benzoic acid]
20 | 181 to 183 °C | O=C(O)C(O)c1cccc(OCc2ccccc2Cl)c1OCc1ccncc1 (stereo not drawn) [Example 344, 3-[(2-Chlorophenyl)methoxy]-α-hydroxy-2-(4-pyridinylmethoxy)benzeneacetic acid]
21 | 182 to 184 °C | O=C(Nc1c(OCc2ccc(Cl)cc2Cl)cccc1C(=O)O)c1ccccc1 [Example 387, 2-(Benzoylamino)-3-[(2,4-dichlorophenyl)methoxy]benzoic acid]
22 | 177 to 179 °C | O=C(O)c1cccc(OCc2ccccc2Cl)c1OCc1ccc[n+]([O-])c1
23 | 148 to 150 °C (dec.) | O=C(O)C(Cc1cccc(OCc2ccccc2Cl)c1OCc1ccccc1Cl)C(=O)O [Example 7, [[2,3-Bis[(2-chlorophenyl)methoxy]phenyl]methyl]propanedioic acid]
24 | 156 to 157 °C | O=C(O)c1cccc(OCc2ccccc2Cl)c1OCc1ccccc1Cl [Example 347, 2,3-Bis[(2-chlorophenyl)methoxy]benzoic acid]

Row | melting point | SMILES
25 | 179 to 182 °C | Cn1c(COc2c(OCc3ccccc3Cl)cccc2C(=O)O)nc2ccccc21 [Example 372]
26 | 197 to 201 °C | O=C(O)c1cccc(OCc2ccccc2Cl)c1OCc1nc2ccccc2[nH]1 (as salt: hydrochloride) [Example 371, 2-(1H-Benzimidazol-2-ylmethoxy)-3-[(2-chlorophenyl)methoxyl]benzoic acid, monohydrochloride]
27 | 187 to 189 °C | O=C(Nc1c(OCc2cc(Cl)ccc2Cl)cccc1C(=O)O)c1ccccc1 [Example 384]
28 | 114 to 116 °C | Cc1ccc(C)c(COc2cccc(C(=O)O)c2OCc2cc(C)ccc2C)c1 [Example 351, 2,3-Bis[(2,5-dimethylphenyl)methoxy]benzoic acid]
29 | 182 to 183 °C | O=C(Nc1cccc(C(=O)O)c1OCc1ccccc1Cl)c1ccccc1Cl [Example 392, 3-[(2-Chlorobenzoyl)amino]-2-[(2-chlorophenyl)methoxy]benzoic acid]
30 | 151 to 153 °C | O=C(O)c1cccc(OCc2ccc(Cl)cc2Cl)c1OCc1ccccc1 [Example 354, 3-[(2,4-Dichlorophenyl)methoxy]-2-(phenylmethoxy)benzoic acid]
31 | 126 to 127 °C | O=C(O)c1cccc(OCc2cccc(Cl)c2)c1OCc1cccc(Cl)c1 [Example 348, 2,3-Bis[(3-chlorophenyl)methoxy]benzoic acid]
32 | 186 to 187 °C | O=C(O)c1cc(Br)cc(OCc2ccccc2Cl)c1OCc1ccccc1Cl [Example 355, 5-Bromo-2,3-bis[(2-chlorophenyl)methoxy]benzoic acid]
33 | 145 to 147 °C | O=C(Nc1c(OCc2c(Cl)cccc2Cl)cccc1C(=O)O)c1ccccc1 [Example 383]
34 | 122 to 123 °C | Cc1cc(C)cc(COc2c(OCc3ccccc3Cl)cccc2C(=O)O)c1 [Example 361, 3-[(2-Chlorophenyl)methoxy]-2-[(3,5-dimethylphenyl)methoxy]benzoic acid]
35 | 107 to 109 °C | Cc1cccc(COc2c(OCc3ccccc3Cl)cccc2C(=O)O)c1 [Example 357, 3-[(2-Chlorophenyl)methoxy]-2-[(3-methylphenyl)methoxy]benzoic acid]
36 | 164 to 166 °C | O=C(O)c1c(Br)ccc(OCc2ccccc2)c1OCc1ccccc1 [Example 374, 6-Bromo-2,3-bis(phenylmethoxy)benzoic acid]
37 | 174 to 175 °C | O=C(O)c1cccc(OCc2ccc(Cl)cc2)c1OCc1ccc(Cl)cc1 [Example 349, 2,3-Bis[(4-chlorophenyl)methoxy]benzoic acid]
38 | 202 to 204 °C | O=C(Nc1c(OCc2ccccc2)cccc1C(=O)O)c1cc(Cl)cc(Cl)c1 [Example 382, 2-[(3,5-Dichlorobenzoyl)amino]-3-(phenylmethoxy)benzoic acid]
39 | 208 to 210 °C | O=C(Nc1c(OCc2ccccc2)cccc1C(=O)O)c1ccc(Cl)cc1Cl [Example 381, 2-[(2,4-Dichlorobenzoyl)amino]-3-(phenylmethoxy)benzoic acid]
40 | 145 to 148 °C | O=C(O)c1cccc(OCc2ccccc2Cl)c1OCc1ccc[n+]([O-])c1Cl [Example 370, 3-[(2-Chlorophenyl)methoxy]-2-[(2-chloro-1-oxido-3-pyridinyl)methoxy]benzoic acid]
41 | 140 to 141 °C | CO/N=C(/C(=O)O)c1cccc(OCc2ccccc2Cl)c1OCc1ccccc1Cl (single isomer, unassigned) [Example 340, (E or Z)-2,3-Bis[(2-chlorophenyl)methoxy]-α-(methoxyimino)benzeneacetic acid]
42 | 152 to 154 °C | O=C(O)c1cccc(OCc2ccccc2Cl)c1OCc1cccc(F)c1 [Example 358, 3-[(2-Chlorophenyl)methoxy]-2-[(3-fluorophenyl)methoxy]benzoic acid]
43 | 140 to 142 °C | O=C(O)c1cccc(OCc2ccccc2)c1OCc1ccc(Cl)cc1Cl [Example 353, 2-[(2,4-Dichlorophenyl)methoxy]-3-(phenylmethoxy)benzoic acid]
44 | 186 to 188 °C | O=C(O)c1cccc(OCc2ccccc2Cl)c1OCc1cc[n+]([O-])cc1 [Example 369, 3-[(2-Chlorophenyl)methoxy]-2-[(1-oxido-4-pyridinyl)methoxy]benzoic acid]
45 | 113 to 115 °C | O=C(O)C(F)(F)c1cccc(OCc2ccccc2Cl)c1OCc1ccccc1Cl [Example 27, 2,3-Bis[(2-chlorophenyl)methoxy]-α,α-difluorobenzeneacetic acid]
46 | 183 to 184 °C | O=C(O)c1cccc(OCc2ccccc2Cl)c1OCc1cccnc1Cl [Example 366, 3-[(2-Chlorophenyl)methoxy]-2-[(2-chloro-3-pyridinyl)methoxy)benzoic acid]
47 | 128 to 129 °C | O=C(O)c1cccc(OCc2ccccc2Cl)c1OCc1cccc(C(F)(F)F)c1 [Example 359]
48 | 181 to 182 °C | O=C(O)c1cccc(OCc2ccccc2Cl)c1OCc1cccnc1 [Example 365]
